From patent US10975060B2, “High relaxivity gadolinium chelate compounds for use in magnetic resonance imaging” (BAYER PHARMA AKTIENGESELLSCHAFT, priority 2016, dated 2021)
Read-outs that look alike come from different tables or passages of the source.

Experiments:
[1] = Dynamic CT diffusion phantom study (dialysis cassette in fetal bovine serum); format: physicochemical; settings: dialysis cassette 20,000 MWCO, 20 mmol Gd/L, CT signal over 30 h
Procedure: The described dynamic CT diffusion study compares the ability of Examples 1-10 and Reference compounds 1 and 4 to pass a semipermeable membrane (20 kDa). A 128-row clinical CT device (SOMATOM Definition, 128; Siemens Healthcare, Forchheim, Germany) was used to monitor the diffusion through a semipermeable membrane at 100 kV and 104 mA. Single measurements were performed at 0 min, 1 min, 2 min, 3 min, 5 min, 10 min, 15 min, 20 min, 30 min, 45 min, 60 min, 2 h, 3 h, 5 h, 7 h, 22 h, 24 h, 30 h after placing the dialysis cassette (Slide-A-Lyser, 20,000 MWCO, 0.1-0.5 mL Capacity, Thermo Scientific, Roskilde, Denmark) filled with contrast agent in fetal bovine serum solution (FBS, Sigma, F7524). The images were reconstructed with a slice thickness of 2.4 mm and a B30 convolution kernel. The used concentration in the dialysis cassettes of the investigated Examples 1-10 and Reference compounds 1 and 4 was 20 mmol Gd/L.
The imaging results for all investigated Examples and the Reference compounds 1 and 4 for the time points 0 min and 30 h after placing the cassettes in the FBS solution are depicted in FIG. 1. For image analysis, regions of interest were manually drawn on 1 centrally located slice for each time point (a representative measurement region is indicated in FIG. 1: Image RC1).

[2] = Water solubility (exploratory, 10 mM Tris-HCl, 20 °C); format: physicochemical; settings: water (10 mM Tris-HCl buffer), pH 7.4
Procedure: The exploratory water solubilities of the compounds were determined at room temperature (20° C.) in 0.5 mL buffer solution (10 mM Tris-HCl) in the microcentrifuge tubes (Eppendorf, 2.0 mL safe-lock caps). The solid compounds were added stepwise to the buffer solution. The suspension was mixed using a shaker (Heidolph Reax 2000) and treated 5 min in an ultrasound bath (Bandelin, Sonorex Super RK255H).

[3] = Relaxivity measurements at 3.0 T (whole body MRI scanner, 37 °C) in water and human plasma; format: physicochemical; settings: normalized to Gd, average ± standard deviation
Procedure: Relaxivity Measurements at 3.0 T
Relaxivity measurements at 3.0 T were performed with a whole body 3.0 T MRI Scanner (Philips Intera, Philips Healthcare, Hamburg, Germany) using a knee-coil (SENSE-Knee-8, Philips Healthcare, Hamburg, Germany). The sample tubes (CryoTubetm Vials, Thermo Scientific 1.8 mL, Roskilde, Denmark) were positioned in 3 rows of 4 and 5 tubes in a plastic holder in a box filled with water. The temperature was adjusted to 37° C. For the MRI sequence the shortest possible echo-time (TE) with 7.46 milliseconds was used. The inversion times were chosen to optimize the sequence to measure T1 values corresponding to the estimated T1 range of all relaxation times of contrast media containing solutions. The following inversion times (TIs) were applied: 50, 100, 150, 200, 300, 500, 700, 1000, 1400, 2100, 3200, and 4500 milliseconds. The sequence was run with a constant relaxation delay of 3.4 seconds after the registration of the last echo (variable TR in the range from 3450 to 7900 milliseconds). For details of the fit procedure, see Rohrer et. al. (Invest. Radiol. 2005; 40, 11: 715-724). The experimental matrix of the phantom measurement was 320×320.
The relaxivities were evaluated using three different concentrations of each compound (3 concentrations between 0.05 and 2 mM).
The T1 relaxation times of Example compounds were measured in water and human plasma. Human plasma preparation: For each experiment fresh blood was taken from a volunteer using 10 mL citrate-tubes (Sarstedt S-Monovette 02.1067.001, 10 mL, Citrate). The 10 mL citrate-tubes were carefully inverted 10 times to mix blood and anticoagulant and centrifuged for 15 minutes at 1811 g at room temperature (Eppendorf, Centrifuge 5810R).
The relaxivities ri (where i=1, 2) were calculated on the basis of the measured relaxation rates Ri in water and plasma: Ri=Ri(0)+ri[CGd], where Ri(0) represent the relaxation rate of the respective solvent and CGd the concentration of the compound normalized to the Gadolinium (Table 2).

[4] = Relaxivity measurements at 1.4 T (MiniSpec mq60, 60 MHz, 37 °C) in water and human plasma; format: physicochemical; settings: 1.41 T, normalized to Gd
Procedure: Relaxivity Measurements at 1.4 T
Relaxivity measurements at 1.41 T were performed using a MiniSpec mq60 spectrometer (Bruker Analytik, Karlsruhe, Germany) operating at a resonance frequency of 60 MHz and a temperature of 37° C. The T1 relaxation times were determined using the standard inversion recovery (IR) method with a fixed relaxation delay of at least 5×T1. The variable inversion time (TI) was calculated automatically by the standard software of the MiniSpec mq60 (8 steps). The T2 measurements were done by using a Carr-Purcell-Meiboom-Gill (CPMG) pulse sequence, applying a relaxation delay of at least 5×T1.
Each relaxivity measurement was performed using three different Gd concentrations (3 concentrations between 0.05 and 2 mM). The T1 and T2 relaxation times of the example compounds 1 to 10 were measured in different media for example in water and human plasma. Human plasma preparation: For each experiment fresh blood was taken from a volunteer using 10 mL citrate-tubes (Sarstedt S-Monovette 02.1067.001, 10 mL, Citrate). The 10 mL citrate-tubes were carefully inverted 10 times to mix blood and anticoagulant and centrifuged for 15 minutes at 1811 g at room temperature (Eppendorf, Centrifuge 5810R).
The relaxivities ri (where i=1, 2) were calculated on the basis of the measured relaxation rates Ri in water and plasma: Ri=Ri(0)+ri[CGd], where Ri(0) represent the relaxation rate of the respective solvent and CGd the concentration of the compound normalized to the Gadolinium. The Gadolinium concentrations of the investigated solutions were verified by Inductively Coupled Plasma Mass Spectrometry (ICP-MS Agilent 7500a, Waldbronn, Germany).

[5] = 37 °C, cited from earlier work
[6] = 1.5 T, bovine plasma instead of human plasma, from Rohrer et al.
[7] = 3.0 T, plasma, reference compounds marked ^ (Rohrer et al., bovine plasma per Table 1 footnote)
[8] = 3.0 T, reference compounds marked ^ (Rohrer et al. per Table 1 footnote)

Row | Compound | Diffusion half-live (20 kDa) [1] | Solubility [2] [mg/100 mL] | r1 human plasma ([3]; human plasma) [L/mmol/s] | r1 water ([3]; water) [L/mmol/s] | r1 human plasma [4] [L/mmol/s] | r1 water [4] [L/mmol/s] | r1 human plasma [5, 6] [L/mmol/s] | r1 water ([5]; 1.5 T, from Rohrer et al.) [L/mmol/s] | r1 human plasma [5, 7] [L/mmol/s] | r1 water [5, 8] [L/mmol/s]
1 | CCN(CC(=O)NCC(CNC(=O)CN(CC)C(=O)CN1CCN(CC(=O)[O-])CCN(CC(=O)[O-])CCN(CC(=O)[O-])CC1)(CNC(=O)CN(CC)C(=O)CN1CCN(CC(=O)[O-])CCN(CC(=O)[O-])CCN(CC(=O)[O-])CC1)CNC(=O)CN(CC)C(=O)CN1CCN(CC(=O)[O-])CCN(CC(=O)[O-])CCN(CC(=O)[O-])CC1)C(=O)CN1CCN(CC(=O)[O-])CCN(CC(=O)[O-])CCN(CC(=O)[O-])CC1.[Gd+3].[Gd+3].[Gd+3].[Gd+3] [Example 2, Tetragadolinium [4,10-bis(carboxylatomethyl)-7-{3,13-diethyl-8,8-bis({[(ethyl{[4,7,10-tris(carboxylatomethyl)-1,4,7,10-tetraazacyclododecan-1-yl]acetyl}amino)acetyl]-amino}methyl)-2,5,11,14-tetraoxo-15-[4,7,10-tris(carboxylatomethyl)-1,4,7,10-tetraaza-cyclododecan-1-yl]-3,6,10,13-tetraazapentadec-1-yl}-1,4,7,10-tetraazacyclododecan-1-yl]acetate] | 13.3 h | >1000 | 11.3 ± 0.1 | 9.4 ± 0.1 | 11.6 | 10.4 | – | – | – | –
2 | O=C([O-])CN1CCN(CC(=O)[O-])CCN(CC(=O)N(CC(=O)NCC(CNC(=O)CN(C(=O)CN2CCN(CC(=O)[O-])CCN(CC(=O)[O-])CCN(CC(=O)[O-])CC2)c2ccccc2)(CNC(=O)CN(C(=O)CN2CCN(CC(=O)[O-])CCN(CC(=O)[O-])CCN(CC(=O)[O-])CC2)c2ccccc2)CNC(=O)CN(C(=O)CN2CCN(CC(=O)[O-])CCN(CC(=O)[O-])CCN(CC(=O)[O-])CC2)c2ccccc2)c2ccccc2)CCN(CC(=O)[O-])CC1.[Gd+3].[Gd+3].[Gd+3].[Gd+3] [Example 9, Tetragadolinium [4,10-bis(carboxylatomethyl)-7-{2,5,11,14-tetraoxo-3,13-diphenyl-8,8-bis({[(phenyl{[4,7,10-tris(carboxylatomethyl)-1,4,7,10-tetraazacyclododecan-1-yl]-acetyl}amino)acetyl]amino}methyl)-15-[4,7,10-tris(carboxylatomethyl)-1,4,7,10-tetra-azacyclododecan-1-yl]-3,6,10,13-tetraazapentadec-1-yl}-1,4,7,10-tetraazacyclododecan-1-yl]acetate] | 15.1 h | >1000 | – | – | 12.0 | 11.0 | – | – | – | –
3 | O=C([O-])CN1CCN(CC(=O)[O-])CCN(CC(=O)N(CC(=O)NCC(CNC(=O)CN(Cc2ccccc2)C(=O)CN2CCN(CC(=O)[O-])CCN(CC(=O)[O-])CCN(CC(=O)[O-])CC2)(CNC(=O)CN(Cc2ccccc2)C(=O)CN2CCN(CC(=O)[O-])CCN(CC(=O)[O-])CCN(CC(=O)[O-])CC2)CNC(=O)CN(Cc2ccccc2)C(=O)CN2CCN(CC(=O)[O-])CCN(CC(=O)[O-])CCN(CC(=O)[O-])CC2)Cc2ccccc2)CCN(CC(=O)[O-])CC1.[Gd+3].[Gd+3].[Gd+3].[Gd+3] [Example 10, Tetragadolinium [4,10-bis(carboxylatomethyl)-7-{3,13-dibenzyl-8,8-bis({[(benzyl{[4,7,10-tris(carboxylatomethyl)-1,4,7,10-tetraazacyclododecan-1-yl]acetyl}amino)-acetyl]amino}methyl)-2,5,11,14-tetraoxo-15-[4,7,10-tris(carboxylatomethyl)-1,4,7,10-tetraazacyclododecan-1-yl]-3,6,10,13-tetraazapentadec-1-yl}-1,4,7,10-tetraazacyclo-dodecan-1-yl]acetate] | 15.0 h | >1000 | – | – | 13.3 | 11.5 | – | – | – | –
4 | CNC[C@H](O)[C@@H](O)[C@H](O)[C@H](O)CO.CNC[C@H](O)[C@@H](O)[C@H](O)[C@H](O)CO.O=C([O-])CN(CCN(CC(=O)[O-])CC(=O)O)CCN(CC(=O)[O-])CC(=O)O.[Gd+3] [RC2, gadopentetate dimeglumine] | – | – | – | – | – | – | 4.1 | 3.3 | 3.7 ± 0.2 | 3.1 ± 0.3
5 | CCOc1ccc(CC(CN(CCN(CC(=O)[O-])CC(=O)[O-])CC(=O)[O-])N(CC(=O)[O-])CC(=O)[O-])cc1.[Gd+3].[Na+].[Na+] (stereo not drawn) [RC3, gadoxetate disodium] | – | – | – | – | – | – | 6.9 | 4.7 | 6.2 ± 0.3 | 4.3 ± 0.3
6 | Gadomer-17 [RC4] | No diffusion | – | – | – | – | – | 16 | 17.3 | 13 ± 1 | 13.0 ± 0.7
